Data: PMC12169615, “Fluorescent 4‑Nitrobenzo-2-oxa-1,3-diazole-Coupled Bile Acids as Probe Substrates of Hepatic and Intestinal Bile Acid Transporters of the Solute Carrier Families SLC10 and SLCO” (Journal of Medicinal Chemistry, 2025)
“And” between values parts separate entries of the source, which are not always exact repeats. Equal values may be shown once.

How the values were obtained:
Assay type in all cases: cell-based
human NTCP = target: T1, human NTCP (Homo sapiens, UniProt Q14973); test: Transport kinetics of conjugated 3-NBD-BA (concentration-dependent uptake); conditions: NTCP-HEK293, 10 min uptake, 37 °C, specific (Na+-dependent) uptake
T1 construct: HEK293 cell lines stably transfected with the full open reading frames of human NTCP; expressed in transfected cells
T1 sequence (Q14973 1-349): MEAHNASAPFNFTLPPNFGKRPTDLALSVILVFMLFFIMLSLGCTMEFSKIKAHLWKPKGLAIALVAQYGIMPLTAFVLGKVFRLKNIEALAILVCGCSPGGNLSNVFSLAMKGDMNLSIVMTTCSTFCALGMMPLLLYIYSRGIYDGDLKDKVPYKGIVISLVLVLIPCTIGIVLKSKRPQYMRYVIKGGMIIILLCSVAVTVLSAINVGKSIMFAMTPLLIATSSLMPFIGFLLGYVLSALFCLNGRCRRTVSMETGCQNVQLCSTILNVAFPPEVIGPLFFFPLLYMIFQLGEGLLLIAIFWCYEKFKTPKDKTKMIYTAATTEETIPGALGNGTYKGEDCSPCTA
Description: (§1) In a first step, the time-dependent transport of all conjugated NBD-BA was analyzed. […] Based on these findings, an uptake phase of 10 min was selected as the most practical for subsequent kinetic transport measurements. […] In contrast, for ASBT, reliable carrier-specific concentration-dependent transport rates and K m values could only be determined for 3α-NBD-GCA (16d). The transport rates for 3β-NBD-TCA (14a), 3β-NBD-TCDCA (14b), 3β-NBD-GCA (16a), and 3α-NBD-TCA (14d) were at ≤ 2 across the entire concentration range and were therefore not considered biologically meaningful.
(§2) 6 NTCP and mNtcp transport kinetics for conjugated 3-NBD-BA. Concentration-dependent uptake of the indicated NBD-coupled BA was analyzed in HEK293 cells stably expressing human NTCP or mouse mNtcp at increasing substrate concentrations. Control experiments were performed in the absence of sodium (-Na^+). Uptake was analyzed for 10 min at 37 °C with transport buffer containing the indicated 3-NBD-BA. Afterward, the transport medium was removed, and each cell monolayer was washed and processed for fluorescence detection. Specific uptake was calculated by subtracting the nonspecific uptake in the absence of sodium (-Na^+, open symbols) from the uptake in the presence of sodium (+Na^+, closed symbols) and is shown by dotted lines. Values represent means ± SD of quadruplicate determinations. Michaelis Menten K m values were calculated by nonlinear regression analysis based on the specific uptake data.

mouse mNtcp = target: T2, mouse mNtcp (Mus musculus, UniProt O08705); test: as above; conditions: mNtcp-HEK293, 10 min uptake, 37 °C, specific (Na+-dependent) uptake
T2 construct: stably transfected with the full open reading frames of human NTCP, ASBT, SOAT, OATP1B1, and OATP1B3 as well as mouse mNtcp and mAsbt; expressed in transfected cells
T2 sequence (O08705 1-362): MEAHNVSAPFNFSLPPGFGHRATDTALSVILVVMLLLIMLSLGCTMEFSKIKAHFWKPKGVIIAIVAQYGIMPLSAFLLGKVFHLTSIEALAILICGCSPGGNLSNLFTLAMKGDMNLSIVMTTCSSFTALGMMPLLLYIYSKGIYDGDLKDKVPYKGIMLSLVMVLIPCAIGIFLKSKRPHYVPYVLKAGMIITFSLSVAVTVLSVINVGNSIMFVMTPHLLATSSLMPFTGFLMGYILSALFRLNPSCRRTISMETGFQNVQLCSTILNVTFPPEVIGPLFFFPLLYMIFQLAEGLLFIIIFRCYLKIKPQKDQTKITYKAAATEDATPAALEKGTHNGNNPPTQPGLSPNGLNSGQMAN
Description: as §1, §2

mouse mAsbt = target: T3, mouse mAsbt (Mus musculus, UniProt P70172); test: Fluorescence microscopy screening of cellular uptake of 3-NBD-BA; set-up: stably transfected with the full open reading frames of human NTCP, ASBT, SOAT, OATP1B1, and OATP1B3 as well as mouse mNtcp and mAsbt; expressed in transfected cells; conditions: 50 μM, 10 min, +Na+ vs -Na+
T3 sequence (P70172 1-348): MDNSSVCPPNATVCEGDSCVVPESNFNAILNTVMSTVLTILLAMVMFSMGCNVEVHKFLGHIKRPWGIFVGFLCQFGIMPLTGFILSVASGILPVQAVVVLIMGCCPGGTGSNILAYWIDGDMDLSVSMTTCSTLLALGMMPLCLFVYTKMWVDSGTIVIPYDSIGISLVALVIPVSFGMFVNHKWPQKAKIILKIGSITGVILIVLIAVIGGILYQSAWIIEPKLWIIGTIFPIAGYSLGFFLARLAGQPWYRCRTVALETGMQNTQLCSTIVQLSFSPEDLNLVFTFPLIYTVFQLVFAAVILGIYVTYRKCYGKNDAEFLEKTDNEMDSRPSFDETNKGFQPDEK
Description: Then, all cell lines were cultivated in chamber slides and were grown to confluence to screen for carrier-mediated cellular accumulation of the synthesized NBD-BA. Incubation with the NBD-BA was done in the presence of sodium (+Na^+) as well as in the absence of sodium (-Na^+, negative control) for all SLC10 carriers, namely NTCP, ASBT, mNtcp, mAsbt, and SOAT. For OATP1B1 and OATP1B3, nontransfected HEK293 cells were used as negative control.
4 Screening of the cellular uptake of 3-NBD-BA in HEK293 (HEK) cells stably expressing the human carriers NTCP, ASBT, SOAT, OATP1B1, and OATP1B3, or the mouse carriers mNtcp and mAsbt. For the SLC10 carriers, sodium-free conditions (-Na^+) were used as control. For the OATPs, experiments in non-carrier-expressing HEK293 cells (HEK) served as control. All cell lines were incubated for 10 min with the indicated 3-NBD-BA at 50 μM concentration. Then, cells were washed with PBS and subjected to fluorescence microscopy. Identical microscope settings were used for all images. Scale bar: 75 μm.

SMILES	K m NTCP (human NTCP)	K m mNtcp (mouse mNtcp) [µM]	Cellular NBD-fluorescence, mAsbt-HEK293 (microscopy) (mouse mAsbt)
C[C@H](CCC(=O)NCCS(=O)(=O)[O-])[C@H]1CC[C@H]2[C@@H]3[C@H](O)C[C@@H]4C[C@@H](Nc5ccc([N+](=O)[O-])c6nonc56)CC[C@]4(C)[C@H]3C[C@H](O)[C@]12C.[Na+] [14a]	29.5 µM	20.6	significant increase in cellular NBD-fluorescence compared to the negative control
C[C@H](CCC(=O)NCCS(=O)(=O)[O-])[C@H]1CC[C@H]2[C@@H]3[C@H](O)C[C@@H]4C[C@H](Nc5ccc([N+](=O)[O-])c6nonc56)CC[C@]4(C)[C@H]3C[C@H](O)[C@]12C.[Na+] [14d]	20.0 µM and 20 µM	9.5	significant increase in cellular NBD-fluorescence compared to the negative control
C[C@H](CCC(=O)NCC(=O)O)[C@H]1CC[C@H]2[C@@H]3[C@H](O)C[C@@H]4C[C@@H](Nc5ccc([N+](=O)[O-])c6nonc56)CC[C@]4(C)[C@H]3C[C@H](O)[C@]12C [16a]	43.1 µM	17.2	significant increase in cellular NBD-fluorescence compared to the negative control
C[C@H](CCC(=O)NCC(=O)O)[C@H]1CC[C@H]2[C@@H]3[C@H](O)C[C@@H]4C[C@H](Nc5ccc([N+](=O)[O-])c6nonc56)CC[C@]4(C)[C@H]3C[C@H](O)[C@]12C [16d]	36.8 µM	5.2	significant increase in cellular NBD-fluorescence compared to the negative control
